In patent EP4624497A1, “PHOSPHOEN[…] PROBE, PREPARATION METHOD THEREFOR AND APPLICATION THEREOF” (priority 2022, dated 2024) one finds 485/420 ratio data, which are given here for 1 compound.

The test concerns 293 cells with optical probe plasmids expressed in the cytosol. Nature of the test: dynamic monitoring of phosphoenolpyruvate in the cytosol with the optical probe. It counts as cell-based. The settings on record: 5 mM Oxalate added, detection continued for 30 minutes, HBSS solution. The method, then:
• 1. pCDNA3.1+-based phosphoenolpyruvate optical probe plasmids were transfected into HEK293 by using the transfection reagent Lipofectamine2000 (Invitrogen) and incubated in a cell incubator at 37 °C with 5% CO2. After the exogenous gene was fully expressed for 24~36 hours, the fluorescence detection was performed. • 2. After induction of expression, adherent HEK293 cells were washed three times with PBS and placed in HBSS solution for fluorescence microscopy and microplate reader assays, respectively.
In this example, different localization signal peptides were used to fuse to the optical probe 254/255-TtPFK- I253K/Q254L/R255L/G256F-cpYFP-Y1S which was localized in different organelles.
Thirty-six hours after transfection of 293 cells with optical probe plasmids expressed in the cytosol, the cells were rinsed with PBS, placed in an HBSS solution, and the change in the ratio of the fluorescence intensity at an excitation of 420 nm and an emission of 528 nm to that at an excitation of 485 nm and an emission of 528 nm was detected in a 30-minute period.

Structures are written as SMILES.

As for `O=C(O)C(=O)O` [Oxalate], the 485/420 ratio result was “up to 3.5 times the initial value”.
